The values that follow come from publication PMC11357990, “A first-in-class selective inhibitor of EGFR and PI3K offers a single-molecule approach to targeting adaptive resistance” (Nature Cancer, 2024).

In experiment [1] the target is T1, HER2 (Homo sapiens, UniProt P04626).
T1 construct: gene ERBB2; Km ATP
Kind of experiment: biochemical. On the set-up: Purified kinase inhibition, Z'-LYTE (HER, mTOR, DNA-PK) or Adapta (PI3K), ATP at Km apparent. As for the experimental part:
(§1) IC50 values were determined at a concentration of ATP corresponding to the Km apparent for that kinase.

Experiment [2] has as its target T2, HER4 (Homo sapiens, UniProt Q15303).
T2 construct: gene ERBB4; Km ATP
Kind of experiment: biochemical. On the set-up: Purified kinase inhibition, Z'-LYTE (HER, mTOR, DNA-PK) or Adapta (PI3K), ATP at Km apparent. As for the experimental part:
as §1

Experiment [3] deals with T3, PI3Kγ (Homo sapiens, UniProt P48736). As to the kind of experiment: biochemical kinase assay at ATP Km apparent. On the set-up: gene PIK3CG.
Experiment [4] deals with EGFR (Homo sapiens, UniProt P00533). Kind of experiment: biochemical. On the set-up: Km ATP; Purified kinase inhibition, Z'-LYTE (HER, mTOR, DNA-PK) or Adapta (PI3K), ATP at Km apparent. As for the experimental part: as §1
Experiment [5] concerns the target T4, mTOR (Homo sapiens, UniProt P42345).
T4 construct: Km ATP
Kind of experiment: biochemical. On the set-up: Purified kinase inhibition, Z'-LYTE (HER, mTOR, DNA-PK) or Adapta (PI3K), ATP at Km apparent. As for the experimental part:
as §1

Experiment [6] has as its target T5, PI3Kβ (Homo sapiens, UniProt P42338).
T5 construct: gene PIK3CB; Km ATP
As to the kind of experiment: biochemical. On the set-up: Purified kinase inhibition, Z'-LYTE (HER, mTOR, DNA-PK) or Adapta (PI3K), ATP at Km apparent. The procedure:
as §1

Experiment [7] concerns the target T6, PI3Kδ (Homo sapiens, UniProt O00329).
T6 construct: gene PIK3CD; Km ATP
Kind of experiment: biochemical. On the set-up: Purified kinase inhibition, Z'-LYTE (HER, mTOR, DNA-PK) or Adapta (PI3K), ATP at Km apparent. As for the experimental part:
as §1

Experiment [8] deals with PI3Kα (Homo sapiens, UniProt P42336). As to the kind of experiment: biochemical. On the set-up: gene PIK3CA; Km ATP; Purified kinase inhibition, Z'-LYTE (HER, mTOR, DNA-PK) or Adapta (PI3K), ATP at Km apparent. The procedure:
as §1

In experiment [9] the target is T3, PI3Kγ. As to the kind of experiment: biochemical. On the set-up: gene PIK3CG; Km ATP; Purified kinase inhibition, Z'-LYTE (HER, mTOR, DNA-PK) or Adapta (PI3K), ATP at Km apparent. As for the experimental part: as §1

Broadly, the IC50 is the concentration at which inhibition is half-maximal.

EGFR, sequence (P00533 whole entry): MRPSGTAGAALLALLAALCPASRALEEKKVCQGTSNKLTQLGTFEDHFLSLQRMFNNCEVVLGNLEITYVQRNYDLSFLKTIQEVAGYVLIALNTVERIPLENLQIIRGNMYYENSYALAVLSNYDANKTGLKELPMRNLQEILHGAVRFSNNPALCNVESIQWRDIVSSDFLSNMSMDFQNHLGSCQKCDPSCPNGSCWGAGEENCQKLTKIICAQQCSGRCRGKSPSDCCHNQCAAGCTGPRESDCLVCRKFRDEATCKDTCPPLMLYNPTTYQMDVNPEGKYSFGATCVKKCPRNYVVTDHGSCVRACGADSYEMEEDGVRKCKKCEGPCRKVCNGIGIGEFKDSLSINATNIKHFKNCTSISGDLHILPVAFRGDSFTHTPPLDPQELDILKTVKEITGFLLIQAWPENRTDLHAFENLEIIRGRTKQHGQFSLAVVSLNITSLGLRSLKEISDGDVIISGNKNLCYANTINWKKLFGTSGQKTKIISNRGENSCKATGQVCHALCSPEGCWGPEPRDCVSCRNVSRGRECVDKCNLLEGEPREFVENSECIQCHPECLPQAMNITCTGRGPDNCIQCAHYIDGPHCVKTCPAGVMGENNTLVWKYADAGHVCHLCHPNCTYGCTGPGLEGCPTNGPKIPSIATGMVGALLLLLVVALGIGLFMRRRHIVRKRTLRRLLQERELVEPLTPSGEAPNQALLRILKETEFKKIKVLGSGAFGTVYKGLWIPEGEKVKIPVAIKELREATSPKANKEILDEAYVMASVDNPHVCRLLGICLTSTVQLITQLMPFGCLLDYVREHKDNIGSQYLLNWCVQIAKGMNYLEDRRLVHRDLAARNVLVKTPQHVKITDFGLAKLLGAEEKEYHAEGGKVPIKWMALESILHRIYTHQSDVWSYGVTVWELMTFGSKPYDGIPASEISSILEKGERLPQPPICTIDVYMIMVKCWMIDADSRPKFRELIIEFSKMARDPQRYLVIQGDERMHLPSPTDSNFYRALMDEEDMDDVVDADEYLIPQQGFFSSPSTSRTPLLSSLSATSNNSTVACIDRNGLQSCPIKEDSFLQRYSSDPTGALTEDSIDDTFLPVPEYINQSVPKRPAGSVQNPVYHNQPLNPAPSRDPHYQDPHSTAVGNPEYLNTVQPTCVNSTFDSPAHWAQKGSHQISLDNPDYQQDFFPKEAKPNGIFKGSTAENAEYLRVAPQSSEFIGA
T2 sequence (Q15303 whole entry): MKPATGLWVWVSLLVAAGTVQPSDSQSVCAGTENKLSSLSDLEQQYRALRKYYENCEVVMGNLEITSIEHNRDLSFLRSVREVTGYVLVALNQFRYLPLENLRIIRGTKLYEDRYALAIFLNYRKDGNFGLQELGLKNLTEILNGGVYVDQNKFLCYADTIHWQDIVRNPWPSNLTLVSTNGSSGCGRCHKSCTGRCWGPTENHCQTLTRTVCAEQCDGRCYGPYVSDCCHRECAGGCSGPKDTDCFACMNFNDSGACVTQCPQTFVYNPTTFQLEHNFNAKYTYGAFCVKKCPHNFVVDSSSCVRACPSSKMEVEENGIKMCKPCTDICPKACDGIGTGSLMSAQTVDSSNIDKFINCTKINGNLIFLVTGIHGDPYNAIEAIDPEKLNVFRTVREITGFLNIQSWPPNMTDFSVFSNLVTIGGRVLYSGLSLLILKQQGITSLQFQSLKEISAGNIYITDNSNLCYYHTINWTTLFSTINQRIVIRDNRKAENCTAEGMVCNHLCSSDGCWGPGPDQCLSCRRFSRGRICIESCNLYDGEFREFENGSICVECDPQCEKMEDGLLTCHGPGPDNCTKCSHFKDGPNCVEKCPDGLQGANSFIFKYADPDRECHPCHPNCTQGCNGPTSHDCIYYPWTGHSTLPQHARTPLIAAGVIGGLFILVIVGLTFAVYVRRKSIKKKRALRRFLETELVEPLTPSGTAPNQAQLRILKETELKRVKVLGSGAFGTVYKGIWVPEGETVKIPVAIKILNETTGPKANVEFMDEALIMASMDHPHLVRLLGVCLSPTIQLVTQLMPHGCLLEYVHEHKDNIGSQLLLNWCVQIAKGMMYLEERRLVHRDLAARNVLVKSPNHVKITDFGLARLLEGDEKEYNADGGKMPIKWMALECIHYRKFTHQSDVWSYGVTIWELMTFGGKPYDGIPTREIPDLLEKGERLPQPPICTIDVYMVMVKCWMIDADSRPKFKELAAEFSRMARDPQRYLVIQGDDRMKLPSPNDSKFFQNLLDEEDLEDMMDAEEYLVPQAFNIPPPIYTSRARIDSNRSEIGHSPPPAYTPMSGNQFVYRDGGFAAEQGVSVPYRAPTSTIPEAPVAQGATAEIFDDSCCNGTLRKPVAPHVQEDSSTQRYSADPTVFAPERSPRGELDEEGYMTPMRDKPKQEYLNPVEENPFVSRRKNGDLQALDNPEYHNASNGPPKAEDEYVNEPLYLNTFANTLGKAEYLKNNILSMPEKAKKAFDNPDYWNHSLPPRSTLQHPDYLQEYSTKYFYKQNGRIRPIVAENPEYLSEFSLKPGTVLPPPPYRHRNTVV
T1 sequence (P04626 whole entry): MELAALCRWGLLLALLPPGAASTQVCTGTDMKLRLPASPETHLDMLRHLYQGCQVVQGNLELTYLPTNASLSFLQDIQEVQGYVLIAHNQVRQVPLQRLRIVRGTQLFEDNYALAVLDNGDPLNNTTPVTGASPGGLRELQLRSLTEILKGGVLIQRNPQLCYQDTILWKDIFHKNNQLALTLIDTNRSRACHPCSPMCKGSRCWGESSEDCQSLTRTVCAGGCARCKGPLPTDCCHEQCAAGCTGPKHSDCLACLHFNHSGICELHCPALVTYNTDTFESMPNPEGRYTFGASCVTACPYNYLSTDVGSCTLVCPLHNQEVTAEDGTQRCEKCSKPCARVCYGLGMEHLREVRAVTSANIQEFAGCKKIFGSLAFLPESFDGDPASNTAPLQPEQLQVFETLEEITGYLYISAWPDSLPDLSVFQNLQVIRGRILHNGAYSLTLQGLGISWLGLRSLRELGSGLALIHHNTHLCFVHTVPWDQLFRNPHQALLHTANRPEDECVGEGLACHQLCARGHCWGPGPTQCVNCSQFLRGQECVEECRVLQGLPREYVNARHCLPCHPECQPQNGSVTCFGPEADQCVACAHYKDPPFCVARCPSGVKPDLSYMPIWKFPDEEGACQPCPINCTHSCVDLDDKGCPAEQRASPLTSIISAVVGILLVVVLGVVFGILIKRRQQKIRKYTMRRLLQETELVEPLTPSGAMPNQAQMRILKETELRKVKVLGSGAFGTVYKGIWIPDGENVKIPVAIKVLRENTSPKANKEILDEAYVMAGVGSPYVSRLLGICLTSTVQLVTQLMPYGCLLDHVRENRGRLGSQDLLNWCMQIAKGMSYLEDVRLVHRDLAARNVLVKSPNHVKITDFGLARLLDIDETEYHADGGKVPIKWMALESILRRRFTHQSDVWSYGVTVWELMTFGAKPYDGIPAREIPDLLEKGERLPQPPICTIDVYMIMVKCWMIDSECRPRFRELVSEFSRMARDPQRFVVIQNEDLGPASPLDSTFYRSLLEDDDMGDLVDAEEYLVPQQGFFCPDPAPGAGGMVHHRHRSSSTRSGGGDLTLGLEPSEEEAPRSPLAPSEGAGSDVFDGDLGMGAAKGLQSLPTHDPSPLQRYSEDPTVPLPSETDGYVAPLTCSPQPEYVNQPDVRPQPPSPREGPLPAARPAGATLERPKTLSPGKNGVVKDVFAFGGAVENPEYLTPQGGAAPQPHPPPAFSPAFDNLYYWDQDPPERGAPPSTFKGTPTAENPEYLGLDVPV
T3 sequence (P48736 whole entry): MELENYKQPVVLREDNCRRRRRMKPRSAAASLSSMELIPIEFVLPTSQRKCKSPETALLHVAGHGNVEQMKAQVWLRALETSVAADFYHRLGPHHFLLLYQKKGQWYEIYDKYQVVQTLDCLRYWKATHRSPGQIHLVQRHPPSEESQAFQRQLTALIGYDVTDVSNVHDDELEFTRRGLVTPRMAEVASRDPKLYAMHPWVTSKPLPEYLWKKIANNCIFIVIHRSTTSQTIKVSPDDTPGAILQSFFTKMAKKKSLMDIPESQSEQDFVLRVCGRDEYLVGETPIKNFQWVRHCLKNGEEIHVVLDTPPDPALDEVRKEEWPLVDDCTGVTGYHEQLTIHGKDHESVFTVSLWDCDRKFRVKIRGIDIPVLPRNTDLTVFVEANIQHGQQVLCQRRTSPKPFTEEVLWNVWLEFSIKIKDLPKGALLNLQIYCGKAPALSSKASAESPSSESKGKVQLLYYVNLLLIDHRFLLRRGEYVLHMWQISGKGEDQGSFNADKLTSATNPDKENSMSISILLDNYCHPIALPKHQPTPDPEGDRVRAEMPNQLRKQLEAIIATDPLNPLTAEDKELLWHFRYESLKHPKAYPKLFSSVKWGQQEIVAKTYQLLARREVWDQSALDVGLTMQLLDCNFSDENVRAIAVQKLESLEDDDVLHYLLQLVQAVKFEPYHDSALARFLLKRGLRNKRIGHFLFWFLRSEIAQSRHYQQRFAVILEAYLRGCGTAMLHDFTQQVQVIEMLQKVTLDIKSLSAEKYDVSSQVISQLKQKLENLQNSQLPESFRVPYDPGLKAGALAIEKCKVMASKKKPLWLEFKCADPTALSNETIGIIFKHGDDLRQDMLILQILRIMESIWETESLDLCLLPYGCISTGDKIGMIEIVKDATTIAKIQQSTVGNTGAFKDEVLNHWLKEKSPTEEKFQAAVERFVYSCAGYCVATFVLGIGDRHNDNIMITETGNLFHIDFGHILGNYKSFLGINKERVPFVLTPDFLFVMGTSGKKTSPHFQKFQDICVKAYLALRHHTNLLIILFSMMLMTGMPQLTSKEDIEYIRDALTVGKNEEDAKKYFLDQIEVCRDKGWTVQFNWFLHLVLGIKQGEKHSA

With `COc1ncc(-c2ccc3nccc(-c4ccnnc4)c3c2)cc1NS(=O)(=O)c1ccc(F)cc1F` [Omipalisib], the IC50 was more than 10 µM in experiment [1], more than 10 µM in [2], 0.00062 µM in [3] and more than 10 µM in experiment [4].

Consider `Cc1nc(NC(=O)N2CCC[C@H]2C(N)=O)sc1-c1ccnc(C(C)(C)C(F)(F)F)c1` [Alpelisib], for which the concentration for half-maximal inhibition (IC50) was more than 10 µM in [1], more than 10 µM in [2], 2.94 µM in experiment [5] and more than 10 µM in experiment [4].

As to `CCN1CCN(Cc2ccc(-c3cc4c(N[C@H](C)c5ccccc5)ncnc4[nH]3)cc2)CC1` [NVP-AEE788], the concentration for half-maximal inhibition (IC50) in experiment [1] was 0.0261 µM; in experiment [2] it was 0.221 µM; in experiment [6], more than 10 µM; in [7] it was more than 10 µM; in experiment [5], more than 10 µM; in experiment [8], more than 10 µM. Moreover, in experiment [9], the IC50 was more than 10 µM.

With `COc1c(OCCCN2CCOCC2)ccc2c1N=C(NC(=O)c1cnc(N)nc1)N1CCN=C21` [Copanlisib], the 50% inhibitory concentration (IC50) is more than 10 µM in [1], more than 10 µM in experiment [2], 0.0188 µM in [5] and more than 10 µM in [4].
